In BindingDB's records for doi:10.1016/j.bioorg.2015.04.003 (Comsats Institute of Information Technology, 2015) one finds IC50 data, which are given here for nine molecules.

For the experiment, the target named is T1, Thymidine phosphorylase (Escherichia coli O157:H7, UniProt Q8XB35).
T1 sequence (Q8XB35 whole entry): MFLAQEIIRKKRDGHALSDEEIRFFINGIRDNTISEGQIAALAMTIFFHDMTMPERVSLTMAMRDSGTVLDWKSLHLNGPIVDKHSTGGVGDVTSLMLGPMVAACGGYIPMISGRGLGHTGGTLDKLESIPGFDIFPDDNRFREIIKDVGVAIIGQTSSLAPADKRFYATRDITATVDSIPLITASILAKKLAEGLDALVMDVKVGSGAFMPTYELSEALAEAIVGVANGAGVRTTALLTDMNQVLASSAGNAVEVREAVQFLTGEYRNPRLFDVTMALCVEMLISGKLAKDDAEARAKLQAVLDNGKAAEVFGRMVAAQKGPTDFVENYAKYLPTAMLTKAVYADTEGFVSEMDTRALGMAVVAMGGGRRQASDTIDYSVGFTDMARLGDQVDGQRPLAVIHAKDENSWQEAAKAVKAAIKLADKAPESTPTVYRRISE
Kind of experiment: Thymidine Phosphorylase Inhibition Assay. To be noted: pH 7.4. The method, then:
Briefly, a total reaction mixture of 200 µl contained 145 µl of potassium phosphate buffer (pH 7.4), 30 µl of enzyme at concentration 0.05 and 0.002 U, respectively, were incubated with 5 µl of test materials for 10 min at 25 °C in microplate reader. After incubation, pre read at 290 nm was taken to deduce the absorbance of substrate molecules. Substrate (20 µl, 1.5 mM) was dissolved in potassium phosphate buffer and was immediately added to plate and continuously read after 10, 20, and 30 min in micro-plate reader. All assays were performed in triplicate
In turn, `Oc1ccc(-c2nnc(S)o2)cc1` [5(4'-Hydroxyphenyl)-1,3,4-oxadiazole-2(3H)-thione (6)] returned a concentration for half-maximal inhibition (IC50) of 38.2 µM.
The value for `Nc1ccccc1-c1n[nH]c(=S)o1` [5-(2'-Aminophenyl)-1,3,4-oxadiazole-2(3H)-thione (3)] was 74.3 µM; that for `Oc1ccccc1-c1nnc(S)o1` [5-(2'-Hydroxyphenyl)-2,3-dihydro-1,3,4-oxadiazole-2-thione (2)] was 68.4 µM.
On to `COc1cc(-c2n[nH]c(=S)o2)cc(OC)c1OC` [5-(3',4',5'-Trimethoxyphenyl)-1,3,4-oxadiazole-2(3H)-thione (8)], for which the half-maximal inhibitory concentration (IC50) came to 63.4 µM.
As to `Sc1nnc(-c2cccc(Cl)c2)o1` [5-(3'-Chlorophenyl)-1,3,4-oxadiazole-2(3H)-thione (10)], 258 µM corresponded to half-maximal inhibition (IC50).
The value for `Cc1cccc(-c2nnc(S)o2)c1` [5-(3'-Methylphenyl)-1,3,4-oxadiazole-2(3H)-thione (4)] was 91.8 µM; that for `S=c1[nH]nc(-c2ccc(Br)cc2)o1` [5-(4'-Bromophenyl)-1,3,4-oxadiazole-2(3H)-thione (12)] was 64 µM; that for `S=c1[nH]nc(-c2ccc(Cl)cc2)o1` [5-(4'-Chlorophenyl)-1,3,4-oxadiazole-2(3H)-thione (11)] was 64 µM.
The value for `COc1ccc(-c2n[nH]c(=S)o2)cc1` [5-(4'-Methoxyphenyl)-1,3,4-oxadiazole-2(3H)-thione (7)] was 72.4 µM.

One may read the IC50 as the concentration needed to halve the response being measured. A lower IC50 goes with higher potency.
